Where two headings read alike, the source gives them in different places.
Columns and labels:
Experiment in all cases: Kinase selectivity, scanMAX Kinase assay panel (DiscoverX), % control at 1 uM
Assay type in all cases: binding
[1] = molecular target: T1, scanMAX Kinase assay panel (Homo sapiens, UniProt Q9Y616); details: IRAK3; 1 uM; read-out: Percent Control (%)
T1 construct: purchased DiscoverX
T1 sequence (Q9Y616 1-596): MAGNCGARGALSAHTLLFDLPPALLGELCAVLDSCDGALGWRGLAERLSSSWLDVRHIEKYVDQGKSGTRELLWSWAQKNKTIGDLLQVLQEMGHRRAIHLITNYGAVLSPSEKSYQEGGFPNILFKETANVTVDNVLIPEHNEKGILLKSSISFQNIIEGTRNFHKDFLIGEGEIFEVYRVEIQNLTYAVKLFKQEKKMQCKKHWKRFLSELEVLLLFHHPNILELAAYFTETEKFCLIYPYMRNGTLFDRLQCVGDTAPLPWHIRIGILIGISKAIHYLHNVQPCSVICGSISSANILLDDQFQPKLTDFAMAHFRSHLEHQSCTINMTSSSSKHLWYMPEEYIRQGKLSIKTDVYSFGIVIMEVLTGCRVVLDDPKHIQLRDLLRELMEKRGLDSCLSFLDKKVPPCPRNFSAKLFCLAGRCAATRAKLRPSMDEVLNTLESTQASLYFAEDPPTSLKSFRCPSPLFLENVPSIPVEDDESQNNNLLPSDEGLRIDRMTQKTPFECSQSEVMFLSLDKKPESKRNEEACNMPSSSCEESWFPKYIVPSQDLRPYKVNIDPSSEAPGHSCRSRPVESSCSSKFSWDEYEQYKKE
Outline: (§1)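 Binding across the scanMAX kinase panel was tested at 1 uM compound. % control = (compound − positive control)/(negative control − positive control) × 100; below 35 counted as active.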

[2] = molecular target: T2, scanMAX Kinase assay panel (Homo sapiens, UniProt P36888); details: 1 uM, read-out: Percent Control (%)
T2 construct: purchased DiscoverX
T2 sequence (P36888 27-993): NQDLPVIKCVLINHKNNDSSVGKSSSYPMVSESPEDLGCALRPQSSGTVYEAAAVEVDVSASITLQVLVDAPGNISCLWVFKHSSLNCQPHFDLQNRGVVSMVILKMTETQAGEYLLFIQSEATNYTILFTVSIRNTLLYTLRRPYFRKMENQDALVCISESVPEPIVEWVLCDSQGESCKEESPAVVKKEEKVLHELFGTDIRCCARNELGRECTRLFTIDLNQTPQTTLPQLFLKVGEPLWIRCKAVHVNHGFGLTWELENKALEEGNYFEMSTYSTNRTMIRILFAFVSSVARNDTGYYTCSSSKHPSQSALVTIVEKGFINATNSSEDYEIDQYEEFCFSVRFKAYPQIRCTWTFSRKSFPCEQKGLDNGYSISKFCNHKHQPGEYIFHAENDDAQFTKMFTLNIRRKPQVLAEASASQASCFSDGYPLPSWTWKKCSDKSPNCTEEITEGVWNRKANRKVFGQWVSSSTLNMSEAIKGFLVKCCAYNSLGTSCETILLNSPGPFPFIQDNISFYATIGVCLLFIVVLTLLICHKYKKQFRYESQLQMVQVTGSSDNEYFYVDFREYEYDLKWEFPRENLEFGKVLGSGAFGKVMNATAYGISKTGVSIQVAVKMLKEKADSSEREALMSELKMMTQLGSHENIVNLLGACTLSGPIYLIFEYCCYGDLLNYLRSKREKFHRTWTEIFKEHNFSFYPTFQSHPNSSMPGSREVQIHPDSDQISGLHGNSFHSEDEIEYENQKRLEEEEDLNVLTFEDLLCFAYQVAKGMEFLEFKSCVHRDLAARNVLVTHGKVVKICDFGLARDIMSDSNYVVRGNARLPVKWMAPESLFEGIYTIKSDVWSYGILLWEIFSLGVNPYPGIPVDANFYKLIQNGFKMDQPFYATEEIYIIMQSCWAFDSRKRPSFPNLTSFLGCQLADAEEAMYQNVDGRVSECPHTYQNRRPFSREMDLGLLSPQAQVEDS
Outline: as §1

[3] = molecular target: T3, scanMAX Kinase assay panel (Homo sapiens, UniProt P53350); details: PLK1; 1 uM; read-out: Percent Control (%)
T3 construct: purchased DiscoverX
T3 sequence (P53350 whole entry): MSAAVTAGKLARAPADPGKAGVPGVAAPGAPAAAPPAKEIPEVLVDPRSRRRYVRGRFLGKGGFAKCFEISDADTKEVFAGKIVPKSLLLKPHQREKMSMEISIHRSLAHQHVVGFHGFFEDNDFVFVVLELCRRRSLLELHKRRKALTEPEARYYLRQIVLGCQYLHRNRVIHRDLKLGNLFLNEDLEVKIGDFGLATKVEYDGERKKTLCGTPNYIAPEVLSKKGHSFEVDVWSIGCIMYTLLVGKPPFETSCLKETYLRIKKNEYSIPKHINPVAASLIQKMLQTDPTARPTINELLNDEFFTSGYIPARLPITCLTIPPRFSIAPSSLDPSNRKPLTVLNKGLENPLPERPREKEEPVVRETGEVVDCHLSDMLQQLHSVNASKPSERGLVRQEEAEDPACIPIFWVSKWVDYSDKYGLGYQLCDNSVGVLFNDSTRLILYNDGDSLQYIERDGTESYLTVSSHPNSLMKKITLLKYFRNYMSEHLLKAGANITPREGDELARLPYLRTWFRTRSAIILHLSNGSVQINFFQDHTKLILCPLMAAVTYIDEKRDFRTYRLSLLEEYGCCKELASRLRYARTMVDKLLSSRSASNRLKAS
Outline: as §1

[4] = molecular target: T4, scanMAX Kinase assay panel (Homo sapiens, UniProt Q16620); details: TRKB; 1 uM; read-out: Percent Control (%)
T4 construct: purchased DiscoverX
T4 sequence (Q16620 32-822): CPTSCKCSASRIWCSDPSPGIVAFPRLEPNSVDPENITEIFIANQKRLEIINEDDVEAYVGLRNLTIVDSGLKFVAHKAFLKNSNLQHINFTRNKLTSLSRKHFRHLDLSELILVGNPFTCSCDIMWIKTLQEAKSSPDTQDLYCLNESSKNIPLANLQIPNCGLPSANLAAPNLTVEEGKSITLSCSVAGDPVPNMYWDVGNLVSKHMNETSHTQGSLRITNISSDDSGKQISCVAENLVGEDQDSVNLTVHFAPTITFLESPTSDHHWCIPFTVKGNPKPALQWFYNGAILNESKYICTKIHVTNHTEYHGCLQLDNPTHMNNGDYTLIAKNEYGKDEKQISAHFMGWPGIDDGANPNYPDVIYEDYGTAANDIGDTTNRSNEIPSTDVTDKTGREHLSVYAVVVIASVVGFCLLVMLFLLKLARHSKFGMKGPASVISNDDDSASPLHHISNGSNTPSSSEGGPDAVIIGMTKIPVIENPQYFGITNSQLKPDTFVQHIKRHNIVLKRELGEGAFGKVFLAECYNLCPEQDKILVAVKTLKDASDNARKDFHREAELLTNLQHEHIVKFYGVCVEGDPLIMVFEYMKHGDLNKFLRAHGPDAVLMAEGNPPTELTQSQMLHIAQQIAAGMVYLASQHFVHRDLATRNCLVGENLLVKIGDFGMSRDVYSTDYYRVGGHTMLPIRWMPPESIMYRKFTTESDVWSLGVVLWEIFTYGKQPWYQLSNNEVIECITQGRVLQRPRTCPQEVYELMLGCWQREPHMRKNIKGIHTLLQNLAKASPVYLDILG
Outline: as §1

[5] = molecular target: T5, scanMAX Kinase assay panel (Homo sapiens, UniProt P11802); details: 1 uM, read-out: Percent Control (%)
T5 construct: purchased DiscoverX
T5 sequence (P11802 whole entry): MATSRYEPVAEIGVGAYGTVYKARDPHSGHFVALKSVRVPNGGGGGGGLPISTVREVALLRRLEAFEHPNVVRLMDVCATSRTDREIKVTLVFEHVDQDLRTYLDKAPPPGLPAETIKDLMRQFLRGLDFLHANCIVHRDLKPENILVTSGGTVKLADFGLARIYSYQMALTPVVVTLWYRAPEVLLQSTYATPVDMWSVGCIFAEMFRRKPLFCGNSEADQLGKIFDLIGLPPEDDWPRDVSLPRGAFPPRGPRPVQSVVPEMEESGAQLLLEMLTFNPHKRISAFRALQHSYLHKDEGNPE
Outline: as §1

[6] = molecular target: T6, scanMAX Kinase assay panel (Homo sapiens, UniProt O94768); details: DRAK2; 1 uM; read-out: Percent Control (%)
T6 construct: purchased DiscoverX
T6 sequence (O94768 1-372): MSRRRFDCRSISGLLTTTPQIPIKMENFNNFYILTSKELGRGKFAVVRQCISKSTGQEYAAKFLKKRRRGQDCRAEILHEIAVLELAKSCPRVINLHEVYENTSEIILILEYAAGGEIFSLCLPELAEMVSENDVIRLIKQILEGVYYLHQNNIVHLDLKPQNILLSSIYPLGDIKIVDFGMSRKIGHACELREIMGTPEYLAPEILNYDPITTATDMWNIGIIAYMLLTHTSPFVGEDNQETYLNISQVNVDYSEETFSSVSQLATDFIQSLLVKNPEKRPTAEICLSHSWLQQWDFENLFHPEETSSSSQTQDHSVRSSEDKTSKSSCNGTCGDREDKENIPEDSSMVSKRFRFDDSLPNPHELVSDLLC
Outline: as §1

[7] = molecular target: T7, scanMAX Kinase assay panel (Homo sapiens, UniProt P42685); details: FRK; 1 uM; read-out: Percent Control (%)
T7 construct: purchased DiscoverX
T7 sequence (P42685 whole entry): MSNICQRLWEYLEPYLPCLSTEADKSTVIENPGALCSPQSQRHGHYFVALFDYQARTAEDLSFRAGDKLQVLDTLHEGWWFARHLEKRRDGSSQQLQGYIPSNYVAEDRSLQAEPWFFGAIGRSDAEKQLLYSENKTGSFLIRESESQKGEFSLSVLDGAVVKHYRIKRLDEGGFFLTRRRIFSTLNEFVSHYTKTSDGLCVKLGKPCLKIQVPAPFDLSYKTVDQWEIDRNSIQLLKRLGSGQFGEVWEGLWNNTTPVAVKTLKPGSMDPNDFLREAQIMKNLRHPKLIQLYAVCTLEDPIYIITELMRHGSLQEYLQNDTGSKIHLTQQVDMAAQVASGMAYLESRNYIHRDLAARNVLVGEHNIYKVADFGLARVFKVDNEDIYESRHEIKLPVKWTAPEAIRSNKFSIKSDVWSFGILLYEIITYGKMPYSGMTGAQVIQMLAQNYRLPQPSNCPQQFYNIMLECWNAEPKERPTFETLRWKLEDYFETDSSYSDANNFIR
Outline: as §1

Cc1ccc(C(=O)Nc2ccc(CN3CCN(C)CC3)c(C(F)(F)F)c2)cc1C#Cc1cnc2c(Nc3cnn(C)c3)cccn12 [Example 1, 4-methyl-3-((8-((1-methyl-1H-pyrazol-4-yl)amino)imidazo[1,2-a]pyridin-3-yl)ethynyl)-N-(4-((4-methylpiperazin-1-yl)methyl)-3-(trifluoromethyl)phenyl)benzamide]
remaining binding at 1 µM [1]: 84%
remaining binding at 1 µM ([2]; FLT3-autoinhibited): 46%
remaining binding at 1 µM ([2]; FLT3): 1%
remaining binding at 1 µM [3]: 77%
remaining binding at 1 µM [4]: 0%
remaining binding at 1 µM ([5]; CDK4-cyclinD1): 84%
remaining binding at 1 µM ([5]; CDK4-cyclinD3): 78%
remaining binding at 1 µM ([5]; CDK4): 83%
remaining binding at 1 µM [6]: 90%
remaining binding at 1 µM [7]: 2%

Cc1cn(-c2cc(NC(=O)c3ccc(C)c(C#Cc4cnc5c(Nc6cnn(C)c6)cccn45)c3)cc(C(F)(F)F)c2)cn1 [Example 12, 4-methyl-N-(3-(4-methyl-1H-imidazol-1-yl)-5-(trifluoromethyl)phenyl)-3-((8-((1-methyl-1H-pyrazol-4-yl)amino)imidazo[1,2-a]pyridin-3-yl)ethynyl)benzamide]
remaining binding at 1 µM [1]: 72%
remaining binding at 1 µM ([2]; FLT3-autoinhibited): 100%
remaining binding at 1 µM ([2]; FLT3): 4%
remaining binding at 1 µM [3]: 100%
remaining binding at 1 µM [4]: 16%
remaining binding at 1 µM ([5]; CDK4-cyclinD1): 100%
remaining binding at 1 µM ([5]; CDK4-cyclinD3): 100%
remaining binding at 1 µM ([5]; CDK4): 100%
remaining binding at 1 µM [6]: 95%
remaining binding at 1 µM [7]: 14%

Cc1ccc(NC(=O)C2(C(=O)Nc3ccc(F)cc3)CC2)cc1C#Cc1cnc2c(Nc3cnn(C(C)C)c3)cccn12 [Example 78]
remaining binding at 1 µM [1]: 87%
remaining binding at 1 µM ([2]; FLT3-autoinhibited): 100%
remaining binding at 1 µM ([2]; FLT3): 42%
remaining binding at 1 µM [3]: 100%
remaining binding at 1 µM [4]: 89%
remaining binding at 1 µM ([5]; CDK4-cyclinD1): 100%
remaining binding at 1 µM ([5]; CDK4-cyclinD3): 100%
remaining binding at 1 µM ([5]; CDK4): 100%
remaining binding at 1 µM [6]: 100%
remaining binding at 1 µM [7]: 69%
